The results in this text go back to ChEMBL document CHEMBL1139561, “Biaryl isoxazolinone antibacterial agents” (Bioorg Med Chem Lett, 2005).

Series [1] can be described thus: Maximum serum concentration in mouse was determined. It counts as ADME, organism-based.
Series [2] has as its system Staphylococcus aureus. Description: Minimum inhibition concentration against Staphylococcus aureus strains in presence of 0.25% calf serum. It counts as functional.
Series [3] is described as follows: Protective dose against Staphylococcus aureus in mice after 8 days of oral b.i.d. administration at 1 and 5 hr per interval (n=10). It counts as functional. The conditions noted are these: read-out: PD50.
Series [4] is described as follows: Half life for compound in mouse was determined. It is filed as ADME. The settings on record: in vivo.
For series [5], the system named is Haemophilus influenzae. Description: Minimum inhibition concentration against Haemophilus influenzae strains. It is filed as functional.
A short description of series [6]: Area under curve concentration in mouse was determined. It counts as ADME. The conditions noted are these: in vivo.
Series [7] concerns Staphylococcus aureus. Briefly: Minimum inhibition concentration against Staphylococcus aureus strains in presence of 0.03% calf serum. It counts as functional.
For series [8], the system named is Staphylococcus aureus. Briefly: Minimum inhibition concentration against Staphylococcus aureus strains in presence of 8% calf serum. It counts as functional.
Series [9] is described as follows: Minimum inhibition concentration against Haemophilus influenzae strains; range is 2-8 […]. It counts as functional.

≈ marks a conversion by molar mass, not a printed value. Some results are limits rather than exact numbers.

In series [1], `CC(=O)NCn1cc(-c2ccc(-c3cncnc3)cc2)c(=O)o1` returned a Cmax of 10400 ng/mL. The MIC stood at 0.25 µg/mL in series [2] and 4 µg/mL (≈ 12.9 µM) in series [5]. In addition, in [3], the ED50 was above 14.1 mg/kg/day. Also, the half-life in series [4] was found to be 1.72 h. Also, the AUC in series [6] was found to be 29.1 µg/h/mL.

On to `CC(=O)NCn1cc(-c2ccc(-c3ccsc3)cc2)c(=O)o1`, for which the MIC in series [5] was 4 µg/mL (≈ 12.7 µM); in series [7], 0.03 µg/mL.

On to `CC(=O)NCn1cc(-c2ccc(-c3cccs3)cc2)c(=O)o1`, for which the MIC in [8] came out at 0.25 µg/mL; in series [9], 2 µg/mL (≈ 6.36 µM).

The Cmax is the peak of the concentration-time curve. One may read the half-life as how long it takes for the measured level to halve. Read a high half-life as slow decline.
